Measured values reported in publication PMC5736175, “Nicotinic alpha 7 receptor agonists EVP-6124 and BMS-933043, attenuate scopolamine-induced deficits in visuo-spatial paired associates learning” (PLoS ONE, 2017).
Several values for one entry are separate records, joined by “and”; a condition that tells them apart may be missing. Identical values can stand only once. Entries after “also recorded” stand apart in the source; their conditions may differ.

Key:
[1] = system: scopolamine-treated cynomolgus monkeys; assay: Scopolamine-induced impairment of vsPAL task performance, treatment + scopolamine; format: in vivo, cynomolgus monkeys (Macaca Fasicularis); settings: for % Completion / Average Response Latency (Avg Rsp Lat) / Eventual Correct, 2 Stimuli / Eventual Correct, 3 Stimuli / Eventual Correct, 4 Stimuli / Eventual Correct, Overall Mean % Correct / Initial Correct, 3 Stimuli / Initial Correct, 4 Stimuli / Initial Correct, Overall Mean % Correct / Initial correct, 2 Stimuli: RG3487 1.0 mg/kg + scopolamine
Protocol: Doses cited refer to the free base form of the compounds. […] All drugs were administered intramuscularly (i.m.) in a dosing volume of 0.1–0.2 ml/kg.
On days when compound testing occurred, approximately half the cohort received one dose and the remainder another dose of the same compound and therefore dose order was staggered between animals. With the exception of EVP-6124, all other compounds were tested in a single dose response study.
Cohen’s d values of >0.2, >0.5 and >0.8 are described using the conventions of small, medium, and large effects, respectively.

human nAChR α7 [2] = system: human nAChR α7; design: method as in PMID 20959364; settings: QM7 cells expressing human nAChR α7; cited from earlier work
[3] = Plasma pharmacokinetics in satellite animals (LC-MS/MS), 60 min after i.m. dose; settings: for concentration at 60 min: cynomolgus monkey, plasma, intramuscular
Protocol: For all compounds, plasma pharmacokinetic studies were conducted in a separate cohort of cynomolgus monkeys (N = 2–3 subjects per dose) before beginning vsPAL testing to help guide dose selection. Blood samples were obtained with the animals awake and sitting in a primate chair.
Plasma concentrations of test compounds were determined using LC-MS/MS assays. In brief, 50 μL plasma and sample containing compounds was extracted by protein precipitation method with 150 μL acetonitrile containing an internal standard. A 5 μL sample of supernatant was injected into the LC-MS/MS system. Analytes were separated by reversed phase chromatography and detection of each analyte was achieved through selected reaction monitoring mode of mass spectrometry. Samples were quantified by calculated peak area ratio of analyte and internal standard against a calibration curve.

human nAChR α7 [4] = system: human nAChR α7; design: method as in PMID 20959364, PMID 22085888; settings: xenopus oocytes expressing human nAChR α7; cited from earlier work
5-HT3 receptor = settings: cited from earlier work
[5] = all doses of the study, for EVP-6124 study (1)
[6] = compound 0.03 mg/kg i.m. + Scopolamine
[7] = compound 0.10 mg/kg i.m. + Scopolamine
[8] = compound 0.30 mg/kg i.m. + Scopolamine
[9] = compound 1.00 mg/kg i.m. + Scopolamine

In the case of `Cl.O=C(N[C@@H]1CN2CCC1CC2)c1n[nH]c2ccccc12` [RG3487, N-[(3S)-1-Azabicyclo[2.2.2]oct-3-yl]-1H-indazole-3-carboxamide HCl], the “% Completion” value ([1]; MEAN of 8 animals) is reported as 78.8%, the “Average Response Latency (Avg Rsp Lat)” value ([1]; MEAN of 8 animals) is reported as 2200.2 ms and the “Eventual Correct, 2 Stimuli” value ([1]; MEAN of 8 animals) is reported as 100.0%. For the same compound, the “Eventual Correct, 3 Stimuli” value ([1]; MEAN of 8 animals) was 85.0%, the “Eventual Correct, 4 Stimuli” value ([1]; MEAN of 8 animals) was 54.2% and the “Eventual Correct, Overall Mean % Correct” value ([1]; MEAN of 8 animals) was 79.7%. The “Initial Correct, 3 Stimuli” value ([1]; MEAN of 8 animals) was 48.8%, the “Initial Correct, 4 Stimuli” value ([1]; MEAN of 8 animals) was 22.2% and the “Initial Correct, Overall Mean % Correct” value ([1]; MEAN of 8 animals) was 49.5%. For the same compound, the “Initial correct, 2 Stimuli” value ([1]; MEAN of 8 animals) was 77.5%, the “Eventual Correct, 2 Stimuli” value ([1]; individual animals) was 100.0% and the “% Completion” value ([1]; individual animals, 1 mg/kg) was 70.4% and 84.7% and 100.0% and 97.1% and 94.2% and 27.7% and 96.4% and 60.3%. The “Average Response Latency (Avg Rsp Lat)” value ([1]; individual animals, 1 mg/kg) was 2560.1 ms and 2640.7 ms and 1701.5 ms and 1446.7 ms and 1640.8 ms and 2013.9 ms and 2805.9 ms and 2791.8 ms, the “Eventual Correct, 3 Stimuli” value ([1]; individual animals, 1 mg/kg) was 100.0% and 70.0% and 80.0% and 90.0% and the “Eventual Correct, 4 Stimuli” value ([1]; individual animals, 1 mg/kg) was 80.0% and 33.3% and 50.0% and 70.0% and 16.7%. For the same compound, the “Eventual Correct, Overall Mean % Correct” value ([1]; individual animals, 1 mg/kg) was 93.3% and 77.8% and 73.3% and 83.3% and 90.0% and 62.2% and 71.1% and 86.7%, the “Initial Correct, 3 Stimuli” value ([1]; individual animals, 1 mg/kg) was 70.0% and 50.0% and 20.0% and 80.0% and 30.0% and the “Initial Correct, 4 Stimuli” value ([1]; individual animals, 1 mg/kg) was 30.0% and 11.1% and 10.0% and 50.0% and 0.0% and 16.7%. The “Initial Correct, Overall Mean % Correct” value ([1]; individual animals, 1 mg/kg) was 66.7% and 37.0% and 30.0% and 60.0% and 70.0% and 33.3% and 38.9%, the “Initial correct, 2 Stimuli” value ([1]; individual animals, 1 mg/kg) was 100.0% and 50.0% and 60.0% and 80.0% and 70.0% and the “Holm-Sidak Post-Hoc, Treatment+Scopolamine differs from Vehicle+Scopolamine: percent correct on initial attempt, 3-stimuli” value ([1]; all doses of the study) was “n.s”. The “Holm-Sidak Post-Hoc, Treatment+Scopolamine differs from Vehicle+Scopolamine: Choice Response Latency” value [1, 5] was “n.s”, the “Holm-Sidak Post-Hoc, Treatment+Scopolamine differs from Vehicle+Scopolamine: Percent Task Completed” value [1, 5] was “n.s” and the “Holm-Sidak Post-Hoc, Treatment+Scopolamine differs from Vehicle+Scopolamine: percent correct on initial attempt, 2-stimuli” value [1, 5] was “n.s”. For the same compound, the “Holm-Sidak Post-Hoc, Treatment+Scopolamine differs from Vehicle+Scopolamine: percent correct on initial attempt, 4 stimuli” value [1, 5] was “n.s”, the “Percent Correct on Initial Attempt (SEM), 2 stimuli” value (“Percent Correct … (SEM), 2 stimuli” for short) [1, 6] was 83.8% (4.6%) and the “Percent Correct on Initial Attempt (SEM), 3 stimuli” value (shortened to “Percent Correct … (SEM), 3 stimuli”) [1, 6] was 43.8% (10.5%). For the same compound, the “Percent Correct on Initial Attempt (SEM), 4 stimuli” value (“Percent Correct … (SEM), 4 stimuli” below) [1, 6] was 25.0% (7.8%), the “Percent Correct … (SEM), 2 stimuli” value [1, 7] was 90.0% (3.3%) and the “Percent Correct … (SEM), 3 stimuli” value [1, 7] was 47.5% (8.0%). For the same compound, the “Percent Correct … (SEM), 4 stimuli” value [1, 7] was 13.8% (6.5%), the “Percent Correct … (SEM), 2 stimuli” value [1, 8] was 83.8% (7.1%) and the “Percent Correct … (SEM), 3 stimuli” value [1, 8] was 42.5% (9.0%). The “Percent Correct … (SEM), 4 stimuli” value [1, 8] was 20.4% (7.5%), the “Percent Correct … (SEM), 2 stimuli” value [1, 9] was 77.5% (6.2%) and the “Percent Correct … (SEM), 3 stimuli” value [1, 9] was 48.8% (8.3%). For the same compound, the “Percent Correct … (SEM), 4 stimuli” value [1, 9] was 22.2% (5.6%), the “effect on scopolamine-induced impairment of eventual accuracy” value ([1]; dose range 0.03-1.0 mg/kg i.m.) was “not efficacious; also recorded: failed to improve eventual accuracy; also recorded: no reversal” and the “maximal peak current relative to acetylcholine” value (human nAChR α7 [2]) was 69%. The “net charge relative to acetylcholine” value (human nAChR α7 [2]) was 53%, the “nM total compound in plasma from satellite animals, 60 min” value (from here on “nM total compound in plasma”) ([3]; 0.10 mg/kg i.m., individual subjects) was 74.4 nM and the “nM total compound in plasma” value ([3]; 0.30 mg/kg i.m., individual subjects) was 132.0 nM. For the same compound, the “nM total compound in plasma” value ([3]; 1.00 mg/kg i.m., individual subjects) was 305.0 nM, the concentration at 60 min ([3]; 0.1 mg/kg, nM total compound in plasma from satellite animals, 60 min, 0.10 mg/kg i.m., individual subjects) was 42.9 nM and the concentration at 60 min ([3]; 0.1 mg/kg, nM total compound in plasma from satellite animals, 60 min, 0.10 mg/kg i.m., mean) was 58.7 nM. The concentration at 60 min ([3]; 0.3 mg/kg, nM total compound in plasma from satellite animals, 60 min, 0.30 mg/kg i.m., individual subjects) was 114 nM, the concentration at 60 min ([3]; 0.3 mg/kg, nM total compound in plasma from satellite animals, 60 min, 0.30 mg/kg i.m., mean) was 123 nM and the concentration at 60 min ([3]; 1 mg/kg, nM total compound in plasma from satellite animals, 60 min, 1.00 mg/kg i.m., individual subjects) was 595 nM. The concentration at 60 min ([3]; 1 mg/kg, nM total compound in plasma from satellite animals, 60 min, 1.00 mg/kg i.m., mean) was 450 nM, the concentration at 60 min ([3]; exposures (predicted and measured), 0.03-1 mg/kg im dose range) was 15 to 450 nM and the concentration at 60 min ([3]; mean plasma concentrations, satellite animals 60 min post-administration, 0.1-1.0 mg/kg dose range) was 58.7 to 450 nM. The “maximal peak current, % of the acetylcholine response” value (human nAChR α7 [4]) was 63% and the 5-HT3 receptor antagonism (5-HT3 receptor) was “potent 5-HT3 receptor antagonists”.
